Values joined by “and” are separate entries in the source; they are usually repeats but may differ in a detail not shown here. Equal entries are not always repeated. Where two headings read alike, the source gives them in different places.
What was measured:
[1] = system: Citrobacter freundii (CFR) isolates; experiment: MIC of compounds alone and combined with antibacterials, broth microdilution (CLSI); type: cell-based
Method in brief: (§1)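 Log-phase isolates at final 5·10^5 CFU/mL in cation-adjusted Mueller-Hinton broth, incubated 16-20 h at 35° C in ambient air. MIC read visually as lowest concentration preventing growth, for compound alone and for antibacterial at each compound concentration.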

[2] = system: Enterobacter cloacae (ECL) isolates; experiment: as above; type: cell-based; settings: for MIC: Enterobacter cloacae
Method in brief: as §1

In the case of `CC1(C)S[C@@H]2[C@H](NC(=O)[C@H](N)c3ccc(O)cc3)C(=O)N2[C@H]1C(=O)O` [AMX, Amoxicillin], the MIC [1] is reported as 128 µg/mL and >256 µg/mL, the “MIC ATB in combination” value [1] is reported as 128 µg/mL and the “MIC ATB in combination” value ([1]; CFR UFR11, AF1 @ 4 μg/mL) is reported as >512 µg/mL. For the same compound, the “MIC ATB in combination” value ([1]; CFR UFR83, AF1 @ 4 μg/mL) was >512 µg/mL, the “MIC ATB in combination” value ([1]; CFR UFR146, AF1 @ 4 μg/mL) was 256 µg/mL and the “MIC ATB in combination” value ([1]; CFR UFR248, AF1 @ 4 μg/mL) was 64 µg/mL. The “MIC ATB in combination” value ([1]; CFR UFR249, AF1 @ 4 μg/mL) was 256 µg/mL, the “MIC ATB in combination” value ([1]; CFR UFR250, AF1 @ 4 μg/mL) was 32 µg/mL and the MIC ([1]; Citrobacter freundii) was > 128 µg/mL. The “MIC ATB in combination” value ([1]; strain CFR UFR253, antibacterial combined with AF1 @ 4 μg/mL) was 4 µg/mL, the “MIC ATB in combination” value ([1]; strain CFR UFR254, antibacterial combined with AF1 @ 4 μg/mL) was 4 µg/mL and the “MIC ATB in combination” value [2] was 128 µg/mL. The “MIC ATB in combination” value ([2]; ECL 190408, AF1 @ 4 μg/mL) was 8 µg/mL, the “MIC ATB in combination” value ([2]; ECL 200138, AF1 @ 4 μg/mL) was 256 µg/mL and the “MIC ATB in combination” value ([2]; ECL 260033, AF1 @ 4 μg/mL) was 256 µg/mL. The “MIC ATB in combination” value ([2]; ECL 260253, AF1 @ 4 μg/mL) was 256 µg/mL, the “MIC ATB in combination” value ([2]; ECL 260323, AF1 @ 4 μg/mL) was 256 µg/mL and the “MIC ATB in combination” value ([2]; ECL UFR13, AF1 @ 4 μg/mL) was 256 µg/mL. For the same compound, the “MIC ATB in combination” value ([2]; ECL UFR70, AF1 @ 4 μg/mL) was 64 µg/mL, the “MIC ATB in combination” value ([2]; ECL UFR85, AF1 @ 4 μg/mL) was 256 µg/mL and the “MIC ATB in combination” value ([2]; ECL UFR194, AF1 @ 4 μg/mL) was 256 µg/mL. The “MIC ATB in combination” value ([2]; ECL UFR200, AF1 @ 4 μg/mL) was 256 µg/mL, the MIC ([2]; ATB alone, strain ECL UFR197 (TEM-1, CTX-M-15, OXA-1, OXA-48)) was > 128 µg/mL and the MIC ([2]; ATB alone, strain ECL UFR198 (TEM-1, SHV-12, CTX-M-15, DHA-1, OXA-1, OXA-48)) was > 128 µg/mL. For the same compound, the MIC ([2]; ATB combined with CLA @ 4 μg/ml, strain ECL UFR197 (TEM-1, CTX-M-15, OXA-1, OXA-48)) was > 128 µg/mL, the MIC ([2]; ATB combined with CLA @ 4 μg/ml, strain ECL UFR198 (TEM-1, SHV-12, CTX-M-15, DHA-1, OXA-1, OXA-48)) was > 128 µg/mL and the MIC ([2]; strain ECL 2185D (OXA-163), ATB alone) was > 256 µg/mL. For the same compound, the MIC ([2]; strain ECL 2185D (OXA-163), CLA @ 4 μg/ml+ ATB) was > 128 µg/mL, the MIC ([2]; strain ECL 190310 (AmpC), ATB alone) was > 256 µg/mL and the MIC ([2]; strain ECL 190310 (AmpC), CLA @ 4 μg/ml+ ATB) was > 128 µg/mL. For the same compound, the MIC ([2]; strain ECL 190408 (TEM-1, CTX-M-15, OXA-1), ATB alone) was > 256 µg/mL, the MIC ([2]; strain ECL 190408 (TEM-1, CTX-M-15, OXA-1), CLA @ 4 μg/ml+ ATB) was > 128 µg/mL and the MIC ([2]; strain ECL 200138 (AmpC), ATB alone) was > 256 µg/mL. For the same compound, the MIC ([2]; strain ECL 200138 (AmpC), CLA @ 4 μg/ml+ ATB) was > 128 µg/mL, the MIC ([2]; strain ECL 200322 (TEM-1, CTX-M-15, OXA-1), ATB alone) was > 256 µg/mL and the MIC ([2]; strain ECL 200322 (TEM-1, CTX-M-15, OXA-1), CLA @ 4 μg/ml+ ATB) was > 128 µg/mL. The MIC ([2]; strain ECL 260033 (AmpC), ATB alone) was > 256 µg/mL, the MIC ([2]; strain ECL 260033 (AmpC), CLA @ 4 μg/ml+ ATB) was > 128 µg/mL and the MIC ([2]; strain ECL 260253 (TEM-1, KPC-3), ATB alone) was > 256 µg/mL. For the same compound, the MIC ([2]; strain ECL 260253 (TEM-1, KPC-3), CLA @ 4 μg/ml+ ATB) was > 128 µg/mL, the MIC ([2]; strain ECL 260323 (AmpC), ATB alone) was > 256 µg/mL and the MIC ([2]; strain ECL 260323 (AmpC), CLA @ 4 μg/ml+ ATB) was > 128 µg/mL. For the same compound, the MIC ([2]; strain ECL 260508 (TEM-1, CTX-M-15), ATB alone) was > 256 µg/mL, the MIC ([2]; strain ECL 260508 (TEM-1, CTX-M-15), CLA @ 4 μg/ml+ ATB) was > 128 µg/mL and the MIC ([2]; strain ECL NEM146383 (AmpC), ATB alone) was > 256 µg/mL. The MIC ([2]; strain ECL NEM146383 (AmpC), CLA @ 4 μg/ml+ ATB) was > 128 µg/mL, the MIC ([2]; strain ECL P99 (AmpC), ATB alone, read-out: MIC) was > 1020 µg/mL and the MIC ([2]; strain ECL P99 (AmpC), CLA @ 4 μg/ml+ ATB) was > 512 µg/mL. For the same compound, the MIC ([2]; strain ECL UFR12 (CTX-M-9, OXA-48), ATB alone) was > 256 µg/mL, the MIC ([2]; strain ECL UFR12 (CTX-M-9, OXA-48), CLA @ 4 μg/ml+ ATB) was > 128 µg/mL and the MIC ([2]; strain ECL UFR13 (TEM-1, SHV-12, CTX-M-9, OXA-48), ATB alone) was > 256 µg/mL. For the same compound, the MIC ([2]; strain ECL UFR13 (TEM-1, SHV-12, CTX-M-9, OXA-48), CLA @ 4 μg/ml+ ATB) was > 128 µg/mL, the MIC ([2]; strain ECL UFR14 (TEM-1, SHV-12, CTX-M-15, DHA-1, OXA-1, OXA-48), ATB alone) was > 256 µg/mL and the MIC ([2]; strain ECL UFR14 (TEM-1, SHV-12, CTX-M-15, DHA-1, OXA-1, OXA-48), CLA @ 4 μg/ml+ ATB) was > 128 µg/mL. The MIC ([2]; strain ECL UFR60 (TEM-1, CTX-M-15, KPC-2), ATB alone) was > 256 µg/mL, the MIC ([2]; strain ECL UFR60 (TEM-1, CTX-M-15, KPC-2), CLA @ 4 μg/ml+ ATB) was > 128 µg/mL and the MIC ([2]; strain ECL UFR70 (TEM-1, CTX-M-15, CMY-2, OXA-1, Porin loss), ATB alone) was > 256 µg/mL. The MIC ([2]; strain ECL UFR70 (TEM-1, CTX-M-15, CMY-2, OXA-1, Porin loss), CLA @ 4 μg/ml+ ATB) was > 128 µg/mL, the MIC ([2]; strain ECL UFR84 (TEM-1, AmpC, OXA-1), ATB alone) was > 256 µg/mL and the MIC ([2]; strain ECL UFR84 (TEM-1, AmpC, OXA-1), CLA @ 4 μg/ml+ ATB) was > 128 µg/mL. The MIC ([2]; strain ECL UFR85 (TEM-1, CTX-M-15, AmpC), ATB alone) was > 256 µg/mL, the MIC ([2]; strain ECL UFR85 (TEM-1, CTX-M-15, AmpC), CLA @ 4 μg/ml+ ATB) was > 128 µg/mL and the MIC ([2]; strain ECL UFR194 (OXA-48), ATB alone) was > 128 µg/mL. For the same compound, the MIC ([2]; strain ECL UFR194 (OXA-48), CLA @ 4 μg/ml+ ATB) was > 128 µg/mL and the MIC ([2]; strain ECL UFR195 (TEM-1, CTX-M-15, OXA-1, OXA-48), ATB alone) was > 128 µg/mL.

Source: patent US20200017496A1 (priority 2017, published 2020)
